What was measured:
[1] = molecular target: PIKFYVE (Homo sapiens, UniProt Q9Y2I7); assay: KINOMEscan: PIKFYVE; assay type: binding
Method: The structure and synthesis of VIP152 were recently described by Lücking et al.. (Fig. 1A); however, the selectivity of the molecule in cellular systems has yet to be explored. […] We also performed this experiment at 1000 nM, where CDK9 was inhibited at 99%. […] We found a strong concordance between our data and those of Lücking when comparing the most inhibited kinases. Potential off-target effects of VIP152 were next tested in vitro at a concentration of 10 µM for off-target activity against a broad range of receptors, transporters, ion channels, and enzymes (n = 138) using the Eurofins Diversity Panel.
Kinomescan Kinase Profiling Assay
Kinomescan Assay was performed at DiscoverRX and described in Fabian, et al. 2005, Nat.
Biotechnol. In brief, kinases were produced and subsequently tagged with DNA for qPCR detection.
Streptavidin-coated magnetic beads were bound to biotinylated kinase ligands to serve as a solid support.
VIP152 was dissolved in DMSO and tested across a 10 serial threefold dilution set and compared to a test compound and a DMSO control. Kinases which were inhibited by VIP152 would not be bound to the solid-support resulting in decreased substrate for the qPCR reaction. Kinome map was produced via TreeSpot Analysis from DiscoverRX. […]
NanoBRETTM Target Engagement Assay Protocol […]
The cell and lipid:DNA […]
complex was dispensed into a sterile tissue culture dish and incubated for 22-24 hours. Test compounds were then delivered from the compound source plate to the wells of a 384-well white NBS plate by Echo 550. Cells with NanoBRET Tracer Reagent were then prepared by first removing media from dish of transfected HEK293 cells via aspiration, trypsinization, and allowing cells to dissociate from the dish. Trypsin was neutralized using medium containing serum and centrifuged at 200g for 5 minutes to pellet the cells. Cell density was then adjusted to 2E05 cells/mL in Opti-MEM without phenol red. Complete 20X NanoBRET Tracer Reagent was prepared with Tracer Dilution Buffer and dispensed at a ratio of 1:20 Reagent to cells in the tube. The cell

[2] = molecular target: GSK3β (Homo sapiens, UniProt P49841); assay: NanoBRET target engagement assay (HEK293); assay type: cell-based
[3] = molecular target: Androgen (Testosterone) AR (Rattus norvegicus, UniProt P15207); assay: Eurofins Diversity Panel; assay type: binding; conditions: Conc. 10 μM
[4] = molecular target: Bradykinin B2 (Homo sapiens, UniProt P30411); assay: Eurofins Diversity Panel; assay type: binding; conditions: hum, Conc. 10 μM
[5] = molecular target: ROCK2 (Homo sapiens, UniProt O75116); assay: KINOMEscan: ROCK2; assay type: binding; conditions: 100 nM, read-out: Percent Control
[6] = molecular target: SRPK2 (Homo sapiens, UniProt P78362); assay: KINOMEscan: SRPK2; assay type: binding; conditions: 100 nM, read-out: Percent Control
[7] = molecular target: TNNI3K (Homo sapiens, UniProt Q59H18); assay: KINOMEscan: TNNI3K; assay type: binding; conditions: 100 nM, read-out: Percent Control
TNNI3K, sequence (Q59H18 whole entry): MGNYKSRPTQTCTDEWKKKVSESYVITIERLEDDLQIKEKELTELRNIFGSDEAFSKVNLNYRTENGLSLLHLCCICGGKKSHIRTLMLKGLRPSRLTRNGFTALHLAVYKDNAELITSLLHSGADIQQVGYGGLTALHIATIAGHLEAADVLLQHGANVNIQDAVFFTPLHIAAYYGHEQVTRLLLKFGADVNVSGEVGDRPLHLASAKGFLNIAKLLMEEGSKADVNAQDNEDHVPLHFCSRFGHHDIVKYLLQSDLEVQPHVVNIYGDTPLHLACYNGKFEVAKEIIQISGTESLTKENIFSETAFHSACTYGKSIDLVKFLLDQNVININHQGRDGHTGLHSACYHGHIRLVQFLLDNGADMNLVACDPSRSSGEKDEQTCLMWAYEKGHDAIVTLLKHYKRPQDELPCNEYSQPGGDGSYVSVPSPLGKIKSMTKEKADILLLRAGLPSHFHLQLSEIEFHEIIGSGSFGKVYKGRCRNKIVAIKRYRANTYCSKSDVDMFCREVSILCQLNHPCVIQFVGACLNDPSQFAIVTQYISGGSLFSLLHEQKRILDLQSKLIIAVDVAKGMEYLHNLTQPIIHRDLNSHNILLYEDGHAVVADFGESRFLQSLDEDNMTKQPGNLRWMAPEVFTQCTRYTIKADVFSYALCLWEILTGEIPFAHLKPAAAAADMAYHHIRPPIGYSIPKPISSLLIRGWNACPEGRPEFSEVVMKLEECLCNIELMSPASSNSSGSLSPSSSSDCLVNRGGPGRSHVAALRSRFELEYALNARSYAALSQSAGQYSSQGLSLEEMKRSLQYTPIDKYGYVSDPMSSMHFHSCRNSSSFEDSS

[8] = molecular target: VPS34 (Homo sapiens, UniProt Q8NEB9); assay: KINOMEscan: VPS34; assay type: binding; conditions: 100 nM, read-out: Percent Control
[9] = molecular target: ACVR1B (Homo sapiens, UniProt P36896); assay: KINOMEscan: ACVR1B; assay type: binding; conditions: 1000 nM, read-out: Percent Control
[10] = molecular target: AMPK-alpha2 (Homo sapiens, UniProt P54646); assay: KINOMEscan: AMPK-alpha2; assay type: binding; conditions: 1000 nM, read-out: Percent Control
[11] = molecular target: BRSK2 (Homo sapiens, UniProt Q8IWQ3); assay: KINOMEscan: BRSK2; assay type: binding; conditions: 1000 nM, read-out: Percent Control
[12] = molecular target: CAMK2D (Homo sapiens, UniProt Q13557); assay: KINOMEscan: CAMK2D; assay type: binding; conditions: 1000 nM, read-out: Percent Control
[13] = molecular target: CDC2L2 (Homo sapiens, UniProt Q9UQ88); assay: KINOMEscan: CDC2L2; assay type: binding; conditions: 1000 nM, read-out: Percent Control
[14] = molecular target: CDKL1 (Homo sapiens, UniProt Q00532); assay: KINOMEscan: CDKL1; assay type: binding; conditions: 1000 nM, read-out: Percent Control
[15] = molecular target: DAPK3 (Homo sapiens, UniProt O43293); assay: KINOMEscan: DAPK3; assay type: binding; conditions: 1000 nM, read-out: Percent Control
[16] = molecular target: DMPK (Homo sapiens, UniProt Q09013); assay: KINOMEscan: DMPK; assay type: binding; conditions: 1000 nM, read-out: Percent Control
[17] = molecular target: EGFR(L861Q) (Homo sapiens, UniProt P00533, L861Q); assay: KINOMEscan: EGFR(L861Q); assay type: binding; conditions: 1000 nM, read-out: Percent Control
[18] = molecular target: EGFR(S752-I759del) (Homo sapiens, UniProt P00533, DEL752-759); assay: KINOMEscan: EGFR(S752-I759del); assay type: binding; conditions: 1000 nM, read-out: Percent Control
[19] = molecular target: ERBB3 (Homo sapiens, UniProt P21860); assay: KINOMEscan: ERBB3; assay type: binding; conditions: 1000 nM, read-out: Percent Control
[20] = molecular target: HUNK (Homo sapiens, UniProt P57058); assay: KINOMEscan: HUNK; assay type: binding; conditions: 1000 nM, read-out: Percent Control
[21] = molecular target: JAK1(JH2domain-pseudokinase) (Homo sapiens, UniProt P23458); assay: KINOMEscan: JAK1(JH2domain-pseudokinase); assay type: binding; conditions: 1000 nM, read-out: Percent Control
[22] = molecular target: JNK1 (Homo sapiens, UniProt P45983); assay: KINOMEscan: JNK1; assay type: binding; conditions: 1000 nM, read-out: Percent Control
[23] = molecular target: JNK3 (Homo sapiens, UniProt P53779); assay: KINOMEscan: JNK3; assay type: binding; conditions: 1000 nM, read-out: Percent Control
[24] = molecular target: KIT(V559D,T670I) (Homo sapiens, UniProt P10721, T670I/V559D); assay: KINOMEscan: KIT(V559D,T670I); assay type: binding; conditions: 1000 nM, read-out: Percent Control
[25] = molecular target: KIT-autoinhibited (Homo sapiens, UniProt P10721); assay: KINOMEscan: KIT-autoinhibited; assay type: binding; conditions: 1000 nM, read-out: Percent Control
[26] = molecular target: LKB1 (Homo sapiens, UniProt Q15831); assay: KINOMEscan: LKB1; assay type: binding; conditions: 1000 nM, read-out: Percent Control
[27] = molecular target: MARK1 (Homo sapiens, UniProt Q9P0L2); assay: KINOMEscan: MARK1; assay type: binding; conditions: 1000 nM, read-out: Percent Control
MARK1, sequence (Q9P0L2 whole entry): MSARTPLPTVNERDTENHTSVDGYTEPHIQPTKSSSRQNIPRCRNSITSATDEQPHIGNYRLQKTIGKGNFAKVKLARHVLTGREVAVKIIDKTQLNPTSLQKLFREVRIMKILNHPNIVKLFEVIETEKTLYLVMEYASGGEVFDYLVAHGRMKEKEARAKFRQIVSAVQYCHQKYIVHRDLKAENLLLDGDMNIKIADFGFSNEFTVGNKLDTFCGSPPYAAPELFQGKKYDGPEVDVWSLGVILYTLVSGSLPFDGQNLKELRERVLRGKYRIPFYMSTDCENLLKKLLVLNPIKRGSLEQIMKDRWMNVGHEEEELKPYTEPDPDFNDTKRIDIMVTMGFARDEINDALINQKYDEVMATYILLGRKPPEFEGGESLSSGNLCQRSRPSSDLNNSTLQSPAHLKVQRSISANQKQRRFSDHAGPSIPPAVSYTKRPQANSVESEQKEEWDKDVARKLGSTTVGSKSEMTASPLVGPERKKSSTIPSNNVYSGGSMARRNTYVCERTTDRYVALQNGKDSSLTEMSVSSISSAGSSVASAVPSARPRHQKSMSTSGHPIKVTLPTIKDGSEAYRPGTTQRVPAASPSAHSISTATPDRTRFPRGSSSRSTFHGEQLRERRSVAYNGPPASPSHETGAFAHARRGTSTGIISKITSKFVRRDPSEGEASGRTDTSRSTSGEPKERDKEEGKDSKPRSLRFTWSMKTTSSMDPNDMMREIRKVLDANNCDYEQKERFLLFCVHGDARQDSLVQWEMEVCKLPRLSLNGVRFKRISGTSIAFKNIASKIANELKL

[28] = molecular target: MET(Y1235D) (Homo sapiens, UniProt P08581, Y1235D); assay: KINOMEscan: MET(Y1235D); assay type: binding; conditions: 1000 nM, read-out: Percent Control
MET(Y1235D), sequence (P08581 25-1390 Y1235D): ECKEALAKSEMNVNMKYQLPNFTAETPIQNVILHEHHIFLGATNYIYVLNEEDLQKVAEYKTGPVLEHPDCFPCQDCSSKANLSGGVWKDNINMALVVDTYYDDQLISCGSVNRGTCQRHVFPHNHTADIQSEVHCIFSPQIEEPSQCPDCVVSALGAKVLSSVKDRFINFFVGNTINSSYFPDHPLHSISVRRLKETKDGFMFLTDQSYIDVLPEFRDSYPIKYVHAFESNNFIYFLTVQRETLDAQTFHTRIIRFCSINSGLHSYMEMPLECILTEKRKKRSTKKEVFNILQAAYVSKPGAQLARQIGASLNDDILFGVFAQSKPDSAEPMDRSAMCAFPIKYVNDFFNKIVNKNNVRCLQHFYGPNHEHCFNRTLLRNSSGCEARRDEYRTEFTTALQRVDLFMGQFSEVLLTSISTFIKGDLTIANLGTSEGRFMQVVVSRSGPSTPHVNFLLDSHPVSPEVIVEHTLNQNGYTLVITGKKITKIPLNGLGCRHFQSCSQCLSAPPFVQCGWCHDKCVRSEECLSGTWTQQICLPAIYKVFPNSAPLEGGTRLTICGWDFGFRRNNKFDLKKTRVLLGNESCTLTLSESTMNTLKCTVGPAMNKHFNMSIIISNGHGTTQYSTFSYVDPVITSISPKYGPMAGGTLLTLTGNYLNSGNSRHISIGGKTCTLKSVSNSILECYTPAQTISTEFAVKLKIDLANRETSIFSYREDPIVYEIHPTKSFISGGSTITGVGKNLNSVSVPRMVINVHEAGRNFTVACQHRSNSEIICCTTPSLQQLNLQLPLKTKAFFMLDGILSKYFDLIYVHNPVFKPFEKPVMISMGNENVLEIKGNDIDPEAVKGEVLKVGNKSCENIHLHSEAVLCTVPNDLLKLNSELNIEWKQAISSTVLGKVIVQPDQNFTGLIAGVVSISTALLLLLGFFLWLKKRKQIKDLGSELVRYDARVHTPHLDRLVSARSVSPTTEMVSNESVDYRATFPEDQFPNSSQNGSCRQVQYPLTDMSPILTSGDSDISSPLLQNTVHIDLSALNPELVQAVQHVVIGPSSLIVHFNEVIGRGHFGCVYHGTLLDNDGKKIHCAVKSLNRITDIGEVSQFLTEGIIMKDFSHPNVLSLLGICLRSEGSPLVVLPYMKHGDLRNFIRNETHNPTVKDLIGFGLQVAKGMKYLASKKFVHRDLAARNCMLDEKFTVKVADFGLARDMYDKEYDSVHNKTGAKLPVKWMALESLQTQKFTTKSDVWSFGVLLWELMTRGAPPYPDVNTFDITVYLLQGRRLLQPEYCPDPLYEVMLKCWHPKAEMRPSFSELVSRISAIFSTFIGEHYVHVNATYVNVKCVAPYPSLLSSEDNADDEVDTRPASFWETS

[29] = molecular target: MINK (Homo sapiens, UniProt Q8N4C8); assay: KINOMEscan: MINK; assay type: binding; conditions: 1000 nM, read-out: Percent Control

PIKFYVE, sequence (Q9Y2I7 whole entry): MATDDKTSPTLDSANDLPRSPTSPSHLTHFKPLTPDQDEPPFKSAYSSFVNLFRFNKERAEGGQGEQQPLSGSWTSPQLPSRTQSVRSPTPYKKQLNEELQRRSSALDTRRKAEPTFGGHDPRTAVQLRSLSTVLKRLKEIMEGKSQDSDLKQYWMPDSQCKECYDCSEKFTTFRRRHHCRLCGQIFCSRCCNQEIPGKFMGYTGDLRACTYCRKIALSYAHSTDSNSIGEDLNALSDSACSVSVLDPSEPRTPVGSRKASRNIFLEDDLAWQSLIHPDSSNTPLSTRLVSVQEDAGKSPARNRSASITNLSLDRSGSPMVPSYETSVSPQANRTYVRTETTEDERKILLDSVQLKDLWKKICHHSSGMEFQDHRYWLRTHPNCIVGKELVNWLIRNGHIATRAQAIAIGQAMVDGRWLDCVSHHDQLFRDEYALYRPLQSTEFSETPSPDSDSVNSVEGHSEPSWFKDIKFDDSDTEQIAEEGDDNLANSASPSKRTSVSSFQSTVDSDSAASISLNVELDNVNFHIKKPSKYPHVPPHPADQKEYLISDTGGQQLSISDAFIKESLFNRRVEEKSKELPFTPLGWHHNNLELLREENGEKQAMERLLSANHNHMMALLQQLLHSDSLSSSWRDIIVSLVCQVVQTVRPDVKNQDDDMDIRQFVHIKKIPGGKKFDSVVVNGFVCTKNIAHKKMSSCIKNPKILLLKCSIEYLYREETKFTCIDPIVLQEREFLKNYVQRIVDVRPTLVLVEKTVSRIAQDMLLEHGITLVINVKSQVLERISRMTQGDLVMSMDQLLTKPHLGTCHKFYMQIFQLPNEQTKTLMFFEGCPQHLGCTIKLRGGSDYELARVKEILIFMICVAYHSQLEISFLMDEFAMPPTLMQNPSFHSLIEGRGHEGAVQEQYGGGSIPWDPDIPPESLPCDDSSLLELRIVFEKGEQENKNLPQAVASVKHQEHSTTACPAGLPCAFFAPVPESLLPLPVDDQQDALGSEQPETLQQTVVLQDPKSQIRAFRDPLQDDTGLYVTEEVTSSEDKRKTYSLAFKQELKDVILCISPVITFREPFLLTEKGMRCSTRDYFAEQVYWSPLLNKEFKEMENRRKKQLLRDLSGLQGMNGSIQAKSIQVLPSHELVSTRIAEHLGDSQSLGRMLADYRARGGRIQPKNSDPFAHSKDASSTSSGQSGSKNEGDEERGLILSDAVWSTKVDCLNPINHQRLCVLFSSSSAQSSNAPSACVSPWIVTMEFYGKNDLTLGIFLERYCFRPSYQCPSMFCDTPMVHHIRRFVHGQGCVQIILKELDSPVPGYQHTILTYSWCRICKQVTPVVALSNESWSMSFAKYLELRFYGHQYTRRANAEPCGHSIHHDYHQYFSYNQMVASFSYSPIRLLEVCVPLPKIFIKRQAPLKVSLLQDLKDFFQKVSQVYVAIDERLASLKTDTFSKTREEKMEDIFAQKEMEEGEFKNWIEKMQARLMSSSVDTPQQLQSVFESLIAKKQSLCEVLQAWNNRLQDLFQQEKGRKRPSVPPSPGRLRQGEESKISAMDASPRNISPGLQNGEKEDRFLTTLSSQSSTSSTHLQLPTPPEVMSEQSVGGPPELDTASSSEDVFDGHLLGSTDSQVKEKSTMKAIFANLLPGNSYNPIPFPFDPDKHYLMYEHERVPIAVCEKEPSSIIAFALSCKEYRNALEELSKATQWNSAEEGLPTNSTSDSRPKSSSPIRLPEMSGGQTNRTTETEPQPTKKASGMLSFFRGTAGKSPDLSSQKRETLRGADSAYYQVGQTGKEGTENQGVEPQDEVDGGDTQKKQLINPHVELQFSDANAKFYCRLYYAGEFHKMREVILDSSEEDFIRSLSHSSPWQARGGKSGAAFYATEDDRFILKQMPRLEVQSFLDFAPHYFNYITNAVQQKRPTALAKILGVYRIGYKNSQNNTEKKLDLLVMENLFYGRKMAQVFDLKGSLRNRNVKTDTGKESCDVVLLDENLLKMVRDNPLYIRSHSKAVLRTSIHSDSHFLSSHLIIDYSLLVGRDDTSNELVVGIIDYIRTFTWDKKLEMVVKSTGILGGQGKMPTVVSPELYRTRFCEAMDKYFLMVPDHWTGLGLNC

With COc1cc(F)ccc1-c1cc(Nc2cc(CS(C)(=N)=O)ccn2)ncc1F (stereo not shown) [VIP152] the inhibition at 0.1 µM ([1]; 100 nM, read-out: inhibition of PIKFYVE relative to control) was 74%, the remaining binding at 0.1 µM ([1]; PIKFYVE, 100 nM, read-out: Percent Control) was 26% and the remaining binding at 1 µM ([1]; kinase PIKFYVE (Entrez PIKFYVE), compound concentration 1000 nM, read-out: Percent Control) was 55%. The “inhibitory capacity against GSK3β” value [2] was “Inhibits”, the inhibition at 10 µM [3] was 35% and the inhibition at 10 µM [4] was 9%. The remaining binding at 0.1 µM [5] was 100%, the remaining binding at 0.1 µM [6] was 100% and the remaining binding at 0.1 µM [7] was 100%. It also gave a remaining binding at 0.1 µM [8] of 94%, a remaining binding at 1 µM [9] of 96% and a remaining binding at 1 µM [10] of 99%. For the same compound, the remaining binding at 1 µM [11] was 100%, the remaining binding at 1 µM [12] was 69% and the remaining binding at 1 µM [13] was 78%. The remaining binding at 1 µM [14] was 63%, the remaining binding at 1 µM [15] was 91% and the remaining binding at 1 µM [16] was 62%. For the same compound, the remaining binding at 1 µM [17] was 100%, the remaining binding at 1 µM [18] was 97% and the remaining binding at 1 µM [19] was 98%. For the same compound, the remaining binding at 1 µM [20] was 100%, the remaining binding at 1 µM [21] was 96% and the remaining binding at 1 µM [22] was 82%. For the same compound, the remaining binding at 1 µM [23] was 82%, the remaining binding at 1 µM [24] was 64% and the remaining binding at 1 µM [25] was 100%. It also gave a remaining binding at 1 µM [26] of 77%, a remaining binding at 1 µM [27] of 89% and a remaining binding at 1 µM [28] of 19%. The remaining binding at 1 µM [29] was 29%.

Source: PMC9898036, “VIP152 is a selective CDK9 inhibitor with pre-clinical in vitro and in vivo efficacy in chronic lymphocytic leukemia” (Leukemia, 2022)
